Data on 1 compound can be found in US10570156B2, “Substituted imidazo[1,2-a]pyridines as PDE-10 inhibitors” (SUNOVION PHARMACEUTICALS INC., priority 2011, dated 2020).

The structures appear in SMILES notation.

This experiment deals with recombinant human PDE-10 enzyme (Homo sapiens (Human), UniProt Q9Y233). Nature of the experiment: human PDE-10 inhibition assay (IMAP PDE Fluorescence Polarization enzyme assay). The conditions noted are these: Fluorescein-labeled cAMP/cGMP substrate, 40-minute incubation at 37° C. It counts as biochemical. How it is done: In one embodiment, the compounds provided herein were assayed for their ability to inhibit human PDE-10A. In one embodiment, the activities of the compounds were determined using the Molecular Devices IMAP PDE Fluorescence Polarization assay using recombinant human PDE-10 enzyme expressed in a baculoviral system. Briefly, 10 μL of a compound (0.2 nM-20 μM) was added to either a 96-well half area black plate or a 384-well black plate along with 10 μL of Fluorescein-labeled cAMP/cGMP substrate as per manufacturer's instructions and 10 μL of PDE enzyme (activity 0.1 U). Following a 40-minute incubation at 37° C., 60 μL of IMAP binding reagent was added. The plate was then read on a Perkin Elmer Victor (480-535 nm). The data was analyzed using Prism Software (GraphPad Inc, San Diego, Calif.).
In general terms: Polarisation of emitted light reports the rotation of a fluorescent probe.

recombinant human PDE-10 enzyme, sequence (Q9Y233 whole entry): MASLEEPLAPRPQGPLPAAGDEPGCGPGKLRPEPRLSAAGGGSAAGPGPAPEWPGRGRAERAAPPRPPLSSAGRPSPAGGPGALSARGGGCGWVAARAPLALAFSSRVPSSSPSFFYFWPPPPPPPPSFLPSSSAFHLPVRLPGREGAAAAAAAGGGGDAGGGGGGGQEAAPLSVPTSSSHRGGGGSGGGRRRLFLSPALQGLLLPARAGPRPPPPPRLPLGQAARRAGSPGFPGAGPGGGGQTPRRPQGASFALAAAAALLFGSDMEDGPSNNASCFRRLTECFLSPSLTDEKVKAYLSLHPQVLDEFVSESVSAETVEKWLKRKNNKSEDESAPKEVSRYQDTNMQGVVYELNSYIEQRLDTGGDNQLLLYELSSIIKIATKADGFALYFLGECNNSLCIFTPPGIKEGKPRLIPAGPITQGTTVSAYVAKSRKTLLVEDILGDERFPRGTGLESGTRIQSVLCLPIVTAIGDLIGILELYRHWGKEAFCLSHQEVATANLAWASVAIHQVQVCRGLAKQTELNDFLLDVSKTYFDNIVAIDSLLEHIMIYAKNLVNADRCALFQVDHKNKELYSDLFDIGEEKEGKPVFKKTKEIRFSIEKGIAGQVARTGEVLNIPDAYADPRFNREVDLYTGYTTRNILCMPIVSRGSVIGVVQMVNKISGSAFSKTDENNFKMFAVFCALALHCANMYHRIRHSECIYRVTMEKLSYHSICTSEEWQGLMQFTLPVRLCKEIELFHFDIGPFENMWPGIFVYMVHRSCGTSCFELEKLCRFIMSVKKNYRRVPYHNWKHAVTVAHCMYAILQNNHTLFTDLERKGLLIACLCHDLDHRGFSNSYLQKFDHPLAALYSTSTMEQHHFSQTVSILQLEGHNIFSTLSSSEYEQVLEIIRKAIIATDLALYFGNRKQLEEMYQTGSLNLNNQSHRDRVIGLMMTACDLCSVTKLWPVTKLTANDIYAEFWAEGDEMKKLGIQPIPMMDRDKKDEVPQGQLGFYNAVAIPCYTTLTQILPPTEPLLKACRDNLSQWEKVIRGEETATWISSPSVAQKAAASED

One may read the IC50 as the concentration that gives 50% inhibition. Consider `Cc1ncc(C)n2nc(CCc3nc4c(C)ncc(C)n4n3)nc12` [Compound 2], for which the 50% inhibitory concentration (IC50) is more than 500 nM.
